Reference: patent US20070219214A1, “Dual NK2/NK3-antagonists, pharmaceutical compositions comprising them, and processes for their preparation” (Solvay pharmaceuticals GmbH, priority 2006, published 2007)

How the values were obtained:
human NK3 receptor [1] = target: T1, human NK3 receptor (Homo sapiens, UniProt P29371); assay: Functional cellular test, Ca2+ measurements using aequorin for NK3 activity; assay type: cell-based; design: expressed in transfected cells; host or cells: cell line co-expressing mitochondrially targeted apoaequorin (CHO according to b76/b77); details: for Kb: read-out: pA2 data for NK3 (converted)
T1 sequence (P29371 1-465): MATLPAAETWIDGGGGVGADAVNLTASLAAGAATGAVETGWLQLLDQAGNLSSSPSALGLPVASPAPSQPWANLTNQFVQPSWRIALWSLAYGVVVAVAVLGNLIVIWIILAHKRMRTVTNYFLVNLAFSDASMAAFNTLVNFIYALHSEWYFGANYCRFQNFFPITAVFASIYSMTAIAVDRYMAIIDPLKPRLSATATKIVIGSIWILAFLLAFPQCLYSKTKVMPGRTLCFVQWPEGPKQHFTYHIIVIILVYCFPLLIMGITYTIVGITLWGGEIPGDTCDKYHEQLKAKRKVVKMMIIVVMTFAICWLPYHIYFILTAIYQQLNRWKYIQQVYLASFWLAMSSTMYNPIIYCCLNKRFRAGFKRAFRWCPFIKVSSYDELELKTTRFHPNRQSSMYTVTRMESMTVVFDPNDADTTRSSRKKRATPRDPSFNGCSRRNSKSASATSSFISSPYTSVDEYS

human NK2-receptor [2] = target: T2, human NK2-receptor (Homo sapiens, UniProt P21452); assay: Functional cellular test, Ca2+ measurements using FLIPR for NK2 activity;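 also: CHO cells stably expressing the human receptor, loaded with a calcium dye, antagonist inhibition of ligand-evoked intracellular calcium rise read as peak fluorescence change on FLIPR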
T2 sequence (P21452 1-398): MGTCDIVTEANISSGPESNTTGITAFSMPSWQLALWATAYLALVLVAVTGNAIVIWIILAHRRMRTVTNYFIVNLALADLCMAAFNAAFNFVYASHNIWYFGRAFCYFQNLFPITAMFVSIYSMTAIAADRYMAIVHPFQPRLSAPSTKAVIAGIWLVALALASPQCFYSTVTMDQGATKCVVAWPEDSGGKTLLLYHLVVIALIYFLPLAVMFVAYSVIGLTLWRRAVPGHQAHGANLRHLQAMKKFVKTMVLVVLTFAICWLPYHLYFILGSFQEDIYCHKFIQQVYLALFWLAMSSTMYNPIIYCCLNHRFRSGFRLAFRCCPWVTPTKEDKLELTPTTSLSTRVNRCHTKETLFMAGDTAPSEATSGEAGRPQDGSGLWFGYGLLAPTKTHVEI

human NK2-receptor [3] = target: T2, human NK2-receptor; assay: Binding potency of the test substances to NK2-receptors in vitro ([3H]-SR 48968 displacement); design: expressed in transfected cells; host or cells: CHO cells (membrane preparation); details: human NK2-receptor in CHO cell membranes, [3H]-SR 48968 (saredutant), average of at least three measurements; for Ki: read-out: pKi, binding potency to NK2-receptors (converted)
From the text: 2. Determination of the Binding Potency of the Test Substances to NK2-Receptors in Vitro
The affinity of test compounds for NK2-receptors can be determined by measuring the ability of the test compound to displace a radiolabeled ligand from its specific binding site.
(§1) The radiolabel used in this assay is [^3H]-SR 48968 (saredutant). Receptors were obtained from membrane preparations of CHO-cells (Chinese Hamster Ovary cells), in which the human NK2-receptor was stably expressed. Membranes were incubated with [^3H]-saredutant in the absence or presence of test compounds at different concentrations, diluted in a buffer system. Separation of bound radioactivity from free radioactivity was done by filtration through glass fiber filters (Packard GF/B) with several washings with ice-cold buffer solution. Bound radioactivity was measured with a liquid scintillation counter (total binding). Unspecific binding was determined by incubation with an excess (0.1 μmol/l) of unlabeled saredutant. Specific binding is obtained by subtracting the unspecific binding from the total binding.
(§2) Radioactivity of the specific binding was plotted against the concentration of the test compound and IC50 values, i.e. the concentration of test compound by which 50% of the radioligand is displaced, were calculated. The inhibition constant (Ki) was calculated according to the Cheng-Prusoff equation, and listed as its negative logarithmic value (pKi). The pKi value describes the potency of a test compound to bind to a receptor.
(§3) The average result of all measurements is listed above.

human NK3 receptor [4] = target: T1, human NK3 receptor; assay: Binding potency of the test substances to NK3-receptors in vitro ([3H]-SR 142801 displacement); design: expressed in transfected cells; host or cells: CHO cells (membrane preparation); details: human NK3-receptor in CHO cell membranes, [3H]-SR 142801 (osanetant), average of at least three measurements; for Ki: read-out: pKi, binding potency to NK3-receptors (converted)
From the text: 3. Determination of the Binding Potency of the Test Substances to NK3-Receptors in Vitro
The affinity of test compounds for NK3-receptors can be determined by measuring the ability of the test compound to displace a radiolabeled ligand from its specific binding site.
as §1, with “142801 (osanetant).” for “48968 (saredutant).”, “NK3-receptor” for “NK2-receptor”, “[^3H]-osanetant” for “[^3H]-saredutant”, “(1” for “(0.1”, “osanetant.” for “saredutant.”
as §2, with “(pKi)” for “(pKi).”
as §3

Kb (human NK2-receptor [2])	Ki (human NK2-receptor [3])	Ki (human NK3 receptor [4])	SMILES	other results
1.58 nM	1.58 nM	20 nM	CN(C)C(=O)C1(N2CCCCC2)CCN(CCC(CN(C)C(=O)c2cccs2)c2ccc(Cl)c(Cl)c2)CC1 (stereo not drawn) [compound 37]	Kb (human NK3 receptor [1]): 31.6 nM
10 nM	2 nM	10 nM	CN(C)C(=O)C1(N2CCCCC2)CCN(CCC(CN(C)C(=O)c2ccc3occc3c2)c2ccc(Cl)c(Cl)c2)CC1 (stereo not drawn) [compound 68]	
0.631 nM	0.251 nM	5.01 nM	CN(C)C(=O)C1(N2CCCCC2)CCN(CCC(CN(C)C(=O)c2ccccn2)c2ccc(Cl)c(Cl)c2)CC1 (stereo not drawn) [compound 43]	Kb (human NK3 receptor [1]): 31.6 nM
1.58 nM	3.16 nM		CN(C)C(=O)C1(N2CCCCC2)CCN(CC[C@H](CN(C)C(=O)c2ccccc2)c2ccccc2)CC1 [compound 94, 1′-[(3S)-4-[benzoyl(methyl)amino]-3-phenylbutyl]-N,N-dimethyl-1, 4′-bipiperidine-4′-carboxamide]	
0.251 nM	2 nM	79.4 nM	CN(C)C(=O)C1CCCCN1C1CCN(CCC(CN(C)C(=O)c2ccccc2)c2ccc(Cl)c(Cl)c2)CC1 (stereo not drawn) [compound 97]	Kb (human NK3 receptor [1]): 79.4 nM
25.1 nM	6.31 nM	5.01 nM	Cc1c(C(=O)N(C)CC(CCN2CCC(C(=O)N(C)C)(N3CCCCC3)CC2)c2ccc(Cl)c(Cl)c2)nnn1Cc1ccccc1 (stereo not drawn) [compound 67]	Kb (human NK3 receptor [1]): 15.8 nM
2 nM	6.31 nM	3.98 nM	CN(C)C(=O)C1(N2CCCCC2)CCN(CCC(CN(C)C(=O)c2ccc(OC(F)(F)F)cc2)c2ccc(Cl)c(Cl)c2)CC1 (stereo not drawn) [compound 55]	Kb (human NK3 receptor [1]): 7.94 nM
15.8 nM	31.6 nM		CN(C)C(=O)C1(N2CCCCC2)CCN(CCC(CN(C)C(=O)c2cc[n+]([O-])cc2)c2ccc(Cl)c(Cl)c2)CC1 (stereo not drawn) [compound 17]	Kb (human NK3 receptor [1]): 126 nM
			CN(C)C(=O)C1(N2CCCCC2)CCN(CC[C@H](CN(C)C(=O)c2ccccc2O)c2ccc(Cl)c(Cl)c2)CC1 [compound 12]	pA2 data for NK3 (human NK3 receptor [1]; cell line with human NK3 receptor and apoaequorin, agonist senktide 5x10-8 M): 7.9; pA2 data for NK2 (human NK2-receptor [2]; CHO cells, human NK2, FLIPR Ca2+, agonist NKA 10^-7 M): 8.3; pKi, binding potency to NK2-receptors (human NK2-receptor [3]): 8.7; pKi, binding potency to NK3-receptors (human NK3 receptor [4]): 7.9
	3.16 nM	39.8 nM	CN(C)C(=O)C1(N2CCCCC2)CCN(CCC(CN(C)C(=O)c2ccccc2F)c2ccc(Cl)c(Cl)c2)CC1 (stereo not drawn) [compound 72]	
	5.01 nM	50.1 nM	CN(C)C(=O)C1(N2CCCCC2)CCN(CCC(CN(C)C(=O)c2ccc(OC(F)(F)F)cc2)c2ccc(Cl)c(Cl)c2)CC1 (stereo not drawn) [compound 26]	
	15.8 nM	50.1 nM	CN(C)C(=O)C1(N2CCCCC2)CCN(CCC(CN(C)C(=O)c2c(Cl)cccc2Cl)c2ccc(Cl)c(Cl)c2)CC1 (stereo not drawn) [compound 76]	
	2.51 nM	20 nM	CN(C)C(=O)C1(N2CCCCC2)CCN(CCC(CN(C)C(=O)c2cccn2C)c2ccc(Cl)c(Cl)c2)CC1 (stereo not drawn) [compound 30]	
3.98 nM	15.8 nM	12.6 nM	CC(=O)N1CCC(C(=O)N(C)CC(CCN2CCC(C(=O)N(C)C)(N3CCCCC3)CC2)c2ccc(Cl)c(Cl)c2)CC1 (stereo not drawn) [compound 52]	
	1.58 nM	25.1 nM	Cc1ccccc1C(=O)N(C)CC(CCN1CCC(C(=O)N(C)C)(N2CCCCC2)CC1)c1ccc(Cl)c(Cl)c1 (stereo not drawn) [compound 78]	
0.501 nM	1.58 nM	5.01 nM	CN(C)C(=O)C1(N2CCCCC2)CCN(CCC(CN(C)C(=O)c2ccoc2)c2ccc(Cl)c(Cl)c2)CC1 (stereo not drawn) [compound 36]	Kb (human NK3 receptor [1]): 63.1 nM
	3.16 nM	15.8 nM	CN(C)C(=O)C1(N2CCCCC2)CCN(CCC(CN(C)C(=O)c2ccc3cc[nH]c3c2)c2ccc(Cl)c(Cl)c2)CC1 (stereo not drawn) [compound 41]	
	12.6 nM	79.4 nM	CN(C)C(=O)C1(N2CCCCC2)CCN(CCC(CN(C)C(=O)C2CC2c2ccccc2)c2ccc(Cl)c(Cl)c2)CC1 (stereo not drawn) [compound 90]	
	3.16 nM	20 nM	CN(C)C(=O)C1(N2CCCCC2)CCN(CCC(CN(C)C(=O)c2ccc(Cl)c(S(N)(=O)=O)c2)c2ccc(Cl)c(Cl)c2)CC1 (stereo not drawn) [compound 47]	
	2.51 nM	50.1 nM	CN(C)C(=O)C1(N2CCCCC2)CCN(CCC(CN(C)C(=O)CCc2ccc(O)cc2)c2ccc(Cl)c(Cl)c2)CC1 (stereo not drawn) [compound 29]	
	5.01 nM	39.8 nM	CN(C)C(=O)C1(N2CCCCC2)CCN(CCC(CN(C)C(=O)c2ccccc2Br)c2ccc(Cl)c(Cl)c2)CC1 (stereo not drawn) [compound 71]	
	7.94 nM	39.8 nM	Cc1ccc(C(=O)N(C)CC(CCN2CCC(C(=O)N(C)C)(N3CCCCC3)CC2)c2ccc(Cl)c(Cl)c2)cc1 (stereo not drawn) [compound 87]	
	2 nM	20 nM	CN(C)C(=O)C1(N2CCCCC2)CCN(CCC(CN(C)C(=O)c2cccc(F)c2)c2ccc(Cl)c(Cl)c2)CC1 (stereo not drawn) [compound 79]	
	39.8 nM	10 nM	CN(C)C(=O)C1(N2CCCCC2)CCN(CCC(CN(C)C(=O)Cc2cccnc2)c2ccc(Cl)c(Cl)c2)CC1 (stereo not drawn) [compound 50]	
	2.51 nM	12.6 nM	CN(C)C(=O)C1(N2CCCCC2)CCN(CCC(CN(C)C(=O)c2cc(=O)c3ccccc3o2)c2ccc(Cl)c(Cl)c2)CC1 (stereo not drawn) [compound 45]	
	1.58 nM	25.1 nM	CN(C)C(=O)C1(N2CCCCC2)CCN(CCC(CN(C)C(=O)c2ccsc2)c2ccc(Cl)c(Cl)c2)CC1 (stereo not drawn) [compound 38]	
	12.6 nM	39.8 nM	CN(C)C(=O)C1(N2CCCCC2)CCN(CCC(CN(C)C(=O)c2c(F)c(F)c(F)c(F)c2F)c2ccc(Cl)c(Cl)c2)CC1 (stereo not drawn) [compound 73]	
	7.94 nM	15.8 nM	CN(C)C(=O)C1(N2CCCCC2)CCN(CCC(CN(C)C(=O)c2ccc(C#N)cc2)c2ccc(Cl)c(Cl)c2)CC1 (stereo not drawn) [compound 91]	
		3.16 nM	CN(C)C(=O)C1(N2CCCCC2)CCN(CCC(CN(C)C(=O)C2CCOCC2)c2ccc(Cl)c(Cl)c2)CC1 (stereo not drawn) [compound 53]	Kb (human NK3 receptor [1]): 50.1 nM
